Consider three molecules from ChEMBL document CHEMBL4400519, “Indazolylketones as new multitarget cannabinoid drugs” (Eur J Med Chem, 2019).

Activity calls are given as the source filed them. The rule behind the calls is not given here. Some results are limits rather than exact numbers.

Data set [1] addresses T1, Cannabinoid receptor (Mus musculus) (UniProt P47746+P47936). Briefly: Agonist activity at cannabinoid receptor in ICR mouse vas deferens assessed as inhibition of electrically induced contractions at 10^-7 M after 10 mins in presence of CB1 antagonist AM251 relative to control. In kind it is protein assay.
Data set [2] concerns the target T1, Cannabinoid receptor (Mus musculus). The experiment in a line: Agonist activity at cannabinoid receptor in ICR mouse vas deferens assessed as inhibition of electrically induced contractions at 9 x 10^-7 M after 10 mins relative to control. In kind it is protein assay.
Data set [3] is filed under the species Homo sapiens. Briefly: Antiproliferative activity against Alzheimer's patient derived lymphoblast cells at 5 uM after 72 hrs by MTT assay. In kind it is functional. (In general: Formazan colour is commonly taken as a measure of viable cells.)
Data set [4] concerns the target T1, Cannabinoid receptor (Mus musculus). Briefly: Agonist activity at cannabinoid receptor in ICR mouse vas deferens assessed as inhibition of electrically induced contractions at 8.1 x 10^-6 M after 10 mins relative to control. In kind it is protein assay.
The target is the same in data set [5]. The experiment in a line: Agonist activity at cannabinoid receptor in ICR mouse vas deferens assessed as inhibition of electrically induced contractions at 1.82 x 10^-5 M after 10 mins in presence of CB2 antagonist AM630 relative to control. In kind it is protein assay.
For data set [6], the system named is SH-SY5Y. Briefly: Neuroprotective activity against amyloid beta-induced neurodegeneration in human SH-SY5Y cells at 20 uM preincubated for 1 hr followed by amyloid beta addition and measured after 24 hrs by MTT assay. In kind it is functional, cell-based.
A short description of data set [7]: Antiproliferative activity against normal human derived lymphoblast cells at 5 uM after 72 hrs by MTT assay.
Data set [8] is filed under the species Homo sapiens. The experiment in a line: Antiproliferative activity against Alzheimer's patient derived lymphoblast cells at 5 uM in presence of CB2 antagonist AM630 after 72 hrs by MTT assay. In kind it is functional.
For data set [9], the target named is T2, Cholinesterase (Homo sapiens, UniProt P06276). The experiment in a line: Inhibition of human serum BChE using butyrylthiocholine as substrate by Ellman's assay.
T2 sequence (P06276 whole entry): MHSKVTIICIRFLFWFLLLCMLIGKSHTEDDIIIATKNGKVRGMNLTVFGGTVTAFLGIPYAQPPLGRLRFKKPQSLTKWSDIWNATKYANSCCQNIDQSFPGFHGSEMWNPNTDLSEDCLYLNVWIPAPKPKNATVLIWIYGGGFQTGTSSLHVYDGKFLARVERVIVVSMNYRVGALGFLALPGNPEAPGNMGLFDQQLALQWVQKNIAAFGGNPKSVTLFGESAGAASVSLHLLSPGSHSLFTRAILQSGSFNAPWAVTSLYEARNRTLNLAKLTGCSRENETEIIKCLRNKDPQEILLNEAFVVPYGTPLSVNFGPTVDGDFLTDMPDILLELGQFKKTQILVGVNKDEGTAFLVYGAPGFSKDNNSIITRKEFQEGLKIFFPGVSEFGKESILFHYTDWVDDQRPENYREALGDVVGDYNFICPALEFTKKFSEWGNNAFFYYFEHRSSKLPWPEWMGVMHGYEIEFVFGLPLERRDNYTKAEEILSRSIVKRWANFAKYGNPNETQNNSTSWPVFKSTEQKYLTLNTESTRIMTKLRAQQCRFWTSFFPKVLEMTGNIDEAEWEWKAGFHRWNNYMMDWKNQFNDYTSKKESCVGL
For data set [10], the target named is T3, Acetylcholinesterase (Homo sapiens, UniProt P22303). The experiment in a line: Inhibition of human erythrocyte AChE at 10 uM using acetylthiocholine as substrate by Ellman's assay. In general terms: In Ellman's method for cholinesterases, released thiocholine reacts with DTNB.
T3 sequence (P22303 whole entry): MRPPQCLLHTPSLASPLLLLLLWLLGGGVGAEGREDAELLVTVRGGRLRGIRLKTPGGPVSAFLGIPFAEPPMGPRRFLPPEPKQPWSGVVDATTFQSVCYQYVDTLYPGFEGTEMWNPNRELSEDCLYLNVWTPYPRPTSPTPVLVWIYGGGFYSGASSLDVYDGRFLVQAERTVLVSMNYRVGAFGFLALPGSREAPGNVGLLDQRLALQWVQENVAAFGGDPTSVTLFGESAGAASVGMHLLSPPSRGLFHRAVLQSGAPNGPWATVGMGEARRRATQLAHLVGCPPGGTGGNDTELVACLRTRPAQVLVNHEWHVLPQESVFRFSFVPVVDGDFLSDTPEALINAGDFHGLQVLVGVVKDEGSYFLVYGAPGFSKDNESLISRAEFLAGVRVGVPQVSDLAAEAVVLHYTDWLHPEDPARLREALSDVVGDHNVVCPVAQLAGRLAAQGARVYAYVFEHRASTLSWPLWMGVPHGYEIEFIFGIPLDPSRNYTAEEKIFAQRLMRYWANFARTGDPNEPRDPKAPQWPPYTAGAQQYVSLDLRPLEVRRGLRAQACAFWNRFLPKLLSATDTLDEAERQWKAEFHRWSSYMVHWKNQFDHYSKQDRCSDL
Data set [11] has as its target T1, Cannabinoid receptor (Mus musculus). Briefly: Agonist activity at cannabinoid receptor in ICR mouse vas deferens assessed as inhibition of electrically induced contractions at 8.1 x 10^-6 M after 10 mins in presence of CB2 antagonist AM630 relative to control. In kind it is protein assay.
The target is the same in data set [12]. Briefly: Agonist activity at cannabinoid receptor in ICR mouse vas deferens assessed as inhibition of electrically induced contractions at 10^-7 M after 10 mins relative to control. In kind it is protein assay.
Data set [13] deals with T2, Cholinesterase. Briefly: Inhibition of human serum BChE at 10 uM using butyrylthiocholine as substrate by Ellman's assay.
The target of data set [14] is T1, Cannabinoid receptor (Mus musculus). Briefly: Agonist activity at cannabinoid receptor in ICR mouse vas deferens assessed as inhibition of electrically induced contractions at 9 x 10^-7 M after 10 mins in presence of CB2 antagonist AM630 relative to control. In kind it is protein assay.
Data set [15] in a line: Antioxidant activity assessed as trolox equivalent of APPH-induced radical scavenging activity by ORAC-FL assay. In kind it is functional.
Data set [16] deals with T1, Cannabinoid receptor (Mus musculus). Briefly: Agonist activity at cannabinoid receptor in ICR mouse vas deferens assessed as inhibition of electrically induced contractions at 3 x 10^-7 M after 10 mins relative to control. In kind it is protein assay.
For data set [17] the target is unchanged. The experiment in a line: Agonist activity at cannabinoid receptor in ICR mouse vas deferens assessed as inhibition of electrically induced contractions at 2.7 x 10^-6 M after 10 mins in presence of CB1 antagonist AM251 relative to control. In kind it is protein assay.
For data set [18] the target is unchanged. The experiment in a line: Agonist activity at cannabinoid receptor in ICR mouse vas deferens assessed as inhibition of electrically induced contractions at 1.82 x 10^-5 M after 10 mins relative to control. In kind it is protein assay.
The target is the same in data set [19]. The experiment in a line: Agonist activity at cannabinoid receptor in ICR mouse vas deferens assessed as inhibition of electrically induced contractions at 2.7 x 10^-6 M after 10 mins relative to control. In kind it is protein assay.
For data set [20] the target is unchanged. Briefly: Agonist activity at cannabinoid receptor in ICR mouse vas deferens assessed as inhibition of electrically induced contractions at 10^-7 M after 10 mins in presence of CB2 antagonist AM630 relative to control. In kind it is protein assay.
Data set [21] shares this target. The experiment in a line: Agonist activity at cannabinoid receptor in ICR mouse vas deferens assessed as inhibition of electrically induced contractions at 1.82 x 10^-5 M after 10 mins in presence of CB1 antagonist AM251 relative to control. In kind it is protein assay.
Data set [22] concerns the target T3, Acetylcholinesterase. The experiment in a line: Inhibition of human erythrocyte AChE using acetylthiocholine as substrate by Ellman's assay.
The test system of data set [23] is SH-SY5Y. Briefly: Neuroprotective activity against amyloid beta-induced neurodegeneration in human SH-SY5Y cells at 20 uM preincubated for 1 hr followed by amyloid beta addition and measured after 24 hrs in presence of CB2 antagonist AM630 by MTT assay. In kind it is functional, cell-based.
For data set [24], the target named is T1, Cannabinoid receptor (Mus musculus). The experiment in a line: Agonist activity at cannabinoid receptor in ICR mouse vas deferens assessed as inhibition of electrically induced contractions at 8.1 x 10^-6 M after 10 mins in presence of CB1 antagonist AM251 relative to control. In kind it is protein assay.
The target of data set [25] is Beta-secretase 1 (Homo sapiens) (UniProt P56817). The experiment in a line: Inhibition of human BACE1 at 10 uM incubated for 60 mins using rhodamine-EVNLDAEFK-quencher substrate by FRET assay.
Sequence of Beta-secretase 1 (Homo sapiens) (P56817 whole entry): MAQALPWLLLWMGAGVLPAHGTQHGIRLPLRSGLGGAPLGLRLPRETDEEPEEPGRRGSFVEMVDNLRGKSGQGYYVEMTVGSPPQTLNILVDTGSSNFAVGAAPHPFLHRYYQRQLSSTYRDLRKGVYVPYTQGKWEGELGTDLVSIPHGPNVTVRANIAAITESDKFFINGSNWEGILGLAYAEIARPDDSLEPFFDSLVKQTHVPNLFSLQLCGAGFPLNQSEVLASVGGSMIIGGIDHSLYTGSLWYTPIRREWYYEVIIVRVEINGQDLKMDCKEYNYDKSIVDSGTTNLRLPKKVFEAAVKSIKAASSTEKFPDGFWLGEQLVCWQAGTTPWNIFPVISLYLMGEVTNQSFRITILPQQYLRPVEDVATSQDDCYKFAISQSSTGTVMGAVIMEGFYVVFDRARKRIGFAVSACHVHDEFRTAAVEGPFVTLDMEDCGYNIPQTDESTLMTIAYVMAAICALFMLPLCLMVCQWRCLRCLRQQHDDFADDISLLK
Data set [26] addresses T1, Cannabinoid receptor (Mus musculus). Briefly: Agonist activity at cannabinoid receptor in ICR mouse vas deferens assessed as inhibition of electrically induced contractions at 2.7 x 10^-6 M after 10 mins in presence of CB2 antagonist AM630 relative to control. In kind it is protein assay.
For data set [27] the target is unchanged. The experiment in a line: Agonist activity at cannabinoid receptor in ICR mouse vas deferens assessed as inhibition of electrically induced contractions at 3 x 10^-7 M after 10 mins in presence of CB2 antagonist AM630 relative to control. In kind it is protein assay.
The target is the same in data set [28]. Briefly: Agonist activity at cannabinoid receptor in ICR mouse vas deferens assessed as inhibition of electrically induced contractions at 9 x 10^-7 M after 10 mins in presence of CB1 antagonist AM251 and CB2 antagonist AM630 relative to control. In kind it is protein assay.
For data set [29] the target is unchanged. Briefly: Agonist activity at cannabinoid receptor in ICR mouse vas deferens assessed as inhibition of electrically induced contractions at 2.7 x 10^-6 M after 10 mins in presence of CB1 antagonist AM251 and CB2 antagonist AM630 relative to control. In kind it is protein assay.
The target is the same in data set [30]. Briefly: Agonist activity at cannabinoid receptor in ICR mouse vas deferens assessed as inhibition of electrically induced contractions at 3 x 10^-7 M after 10 mins in presence of CB1 antagonist AM251 and CB2 antagonist AM630 relative to control. In kind it is protein assay.
Data set [31] has the same target. Briefly: Agonist activity at cannabinoid receptor in ICR mouse vas deferens assessed as inhibition of electrically induced contractions at 8.1 x 10^-6 M after 10 mins in presence of CB1 antagonist AM251 and CB2 antagonist AM630 relative to control. In kind it is protein assay.
Data set [32] shares this target. The experiment in a line: Agonist activity at cannabinoid receptor in ICR mouse vas deferens assessed as inhibition of electrically induced contractions at 1.82 x 10^-5 M after 10 mins in presence of CB1 antagonist AM251 and CB2 antagonist AM630 relative to control. In kind it is protein assay.
Data set [33] has as its target T2, Cholinesterase. Briefly: Non-competitive inhibition of human serum BChE using butyrylthiocholine as substrate by Lineweaver-Burk plot analysis.
Data set [34] concerns SH-SY5Y. Briefly: Neuroprotective activity against amyloid beta-induced neurodegeneration in human SH-SY5Y cells at 10 uM preincubated for 1 hr followed by amyloid beta addition and measured after 24 hrs by MTT assay. In kind it is functional, cell-based.
Data set [35] has as its target T1, Cannabinoid receptor (Mus musculus). Briefly: Agonist activity at cannabinoid receptor in ICR mouse vas deferens assessed as inhibition of electrically induced contractions at 10^-7 M after 10 mins in presence of CB1 antagonist AM251 and CB2 antagonist AM630 relative to control. In kind it is protein assay.
Data set [36] deals with SH-SY5Y. Briefly: Neuroprotective activity against amyloid beta-induced neurodegeneration in human SH-SY5Y cells at 10 uM preincubated for 1 hr followed by amyloid beta addition and measured after 24 hrs CB2 antagonist AM630 by MTT assay. In kind it is functional, cell-based.
In data set [37] the target is T1, Cannabinoid receptor (Mus musculus). Briefly: Agonist activity at cannabinoid receptor in ICR mouse vas deferens assessed as inhibition of electrically induced contractions at 3 x 10^-7 M after 10 mins in presence of CB1 antagonist AM251 relative to control. In kind it is protein assay.
Data set [38] has the same target. The experiment in a line: Agonist activity at cannabinoid receptor in ICR mouse vas deferens assessed as inhibition of electrically induced contractions at 9 x 10^-7 M after 10 mins in presence of CB1 antagonist AM251 relative to control. In kind it is protein assay.

T1 sequence (P47746 whole entry, looked up): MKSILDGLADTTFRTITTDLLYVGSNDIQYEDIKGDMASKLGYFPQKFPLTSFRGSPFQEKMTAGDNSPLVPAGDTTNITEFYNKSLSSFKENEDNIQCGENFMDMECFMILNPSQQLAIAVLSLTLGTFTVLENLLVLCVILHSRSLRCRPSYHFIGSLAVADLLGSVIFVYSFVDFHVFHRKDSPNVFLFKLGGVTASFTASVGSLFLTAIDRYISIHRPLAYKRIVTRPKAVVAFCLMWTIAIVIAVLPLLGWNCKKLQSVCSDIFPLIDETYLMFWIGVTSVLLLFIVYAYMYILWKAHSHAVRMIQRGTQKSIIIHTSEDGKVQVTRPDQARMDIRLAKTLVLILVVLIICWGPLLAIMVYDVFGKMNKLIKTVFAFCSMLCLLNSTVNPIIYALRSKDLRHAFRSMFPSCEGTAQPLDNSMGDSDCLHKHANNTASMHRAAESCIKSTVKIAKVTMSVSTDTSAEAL
T1 sequence (P47936 whole entry, looked up): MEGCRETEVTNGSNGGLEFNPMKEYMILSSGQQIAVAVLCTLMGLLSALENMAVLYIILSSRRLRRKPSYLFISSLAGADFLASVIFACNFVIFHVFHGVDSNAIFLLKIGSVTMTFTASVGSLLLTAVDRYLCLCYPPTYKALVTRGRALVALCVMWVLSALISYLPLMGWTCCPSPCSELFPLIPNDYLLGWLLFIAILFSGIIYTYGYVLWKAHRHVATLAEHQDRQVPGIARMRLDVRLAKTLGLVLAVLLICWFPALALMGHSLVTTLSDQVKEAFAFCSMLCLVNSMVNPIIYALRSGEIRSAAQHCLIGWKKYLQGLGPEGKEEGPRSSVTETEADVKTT

In general, inhibition refers to the drop in the measured response relative to a control, in per cent. One may read the IC50 as the concentration that inhibits the measured activity by half. High values mean a need for much substance, low ones inhibition by little substance. For `COc1ccc(CC(=O)n2nc(OCCCN3CCCCC3)c3ccccc32)cc1`, the inhibition is -9.4% in data set [1]; 16.9% in data set [2]; 88.5% in [4]; 94.3% in data set [5]; 43% in data set [10]; 68.5% in [11]. In addition, the inhibition in [12] was -2.4%; in data set [13] it was 42%; in data set [14], -1.4%; in data set [16] it was -0.3%; in data set [17] it was -1.6%; in data set [18], 96%. For the same molecule, the inhibition in [19] was 42.5%; in [20], -9.2%; in [21], 89.7%; in [24], 61.9%; in data set [25], 60%; in data set [26], 14.7%. In data set [27], the inhibition is -9.4%. For the same molecule, the result in data set [3] and in data set [6] was Active. For the same molecule, the Activity entry in data set [7] is reported as “Non-Toxic”. Moreover, the result in data set [8], in data set [15] and in data set [23] was inactive. For the same molecule, the half-maximal inhibitory concentration (IC50) in data set [9] and in data set [22] was > 10 µM each time.
On to `COc1ccc(COc2nn(CCN(C(C)C)C(C)C)c3ccccc23)cc1`, for which the inhibition in [28] amounted to 12%; in data set [2] it was 18.6%; in data set [4], 74.7%; in data set [29] it was 20.3%; in data set [30], 8.2%; in data set [10], 24%. For the same molecule, the inhibition in data set [31] came out at 60%; in data set [32], 84%; in data set [12], 7.5%; in data set [16], 8.5%; in [18] it was 86.4%; in [19], 43.1%. Moreover, the inhibition in data set [35] was determined as 1.3%; in data set [25], 9%. Besides, the outcome in [3], in data set [6] and in data set [34] was Active. Moreover, the Activity result in data set [7] is “Non-Toxic”. In addition, the outcome in data set [8] was inactive. In addition, the inhibition result in [33] is “Active”. In data set [22], the IC50 was > 10 µM.
Regarding `Cc1cc(C)c(C(=O)n2nc(OCCN3CCCCC3)c3ccccc32)c(C)c1`, the inhibition in data set [1] is -0.4%; in [2], 6.5%; in [4], 30.7%; in data set [5], 1.3%; in [11], -4.7%; in data set [12] it was 2.6%. Also, the inhibition in [16] is 3.6%; in [17], 8.7%; in data set [18], 56.8%; in data set [19] it was 14%; in data set [37] it was 1.4%; in data set [21], 40.7%. Moreover, the inhibition in [38] was found to be 7.6%; in data set [24], 19.8%; in data set [25], 12%. The result in [3] and in data set [34] was Active. Besides, the Activity result in data set [7] is given as “Non-Toxic”. The outcome in [8], in [36] and in data set [15] was inactive. In addition, the concentration for half-maximal inhibition (IC50) in data set [9] worked out at 0.29 µM; in [22] it was 11.6 µM.
